Reference: patent publication US7531195B2, “Schisandrin B preparation” (priority 2005, dated 2009)
Marks after values point to notes of the source that are not given here.

What was measured:
H9c2 cells = test: Cellular GSH level in H9c2 cells, time course, with or without xanthine/xanthine oxidase (X/XO) challenge; type: cell-based, rat; settings: 6.25 μM
Protocol: (§1) H9c2 cells, a permanent cell line derived from cardiac myoblasts of rat embryo, have early been characterized as a suitable model of myocardial cells [Hescheler et al. 1991]. H9c2 cells were cultured as monolayers in Dulbecco's modified Eagle's medium (GIBCO BRL) supplemented with 10% (v/v) fetal bovine serum. The medium contained glucose (4.5 g/L) and glutamine (4.5 mM), supplemented with NaHCO3 (17 mM), penicillin (100 IU/ml), and streptomycin (100 μg/ml). Cells were grown under an atmosphere of 5% CO2 in air at 37° C. The medium was replaced by fresh medium every 2 or 3 days. A stock of cells was grown in a 75 cm culture flask and split before confluence at a subcultivation ratio of 1:10. Cells used for experiments were seeded at a density of 3.75×10^4 cells/well on a 12-well culture plate, and the cells were grown for 24 h to about 80% confluence prior to drug treatment.
Cultured H9c2 cells were treated with (−) Schisandrin B, (+) Schisandrin B or (±) Schisandrin B (dissolved in DMSO) at 6.25 μM (0.2% DMSO final concentration) for increasing periods of time. Control cells were given the vehicle (i.e. DMSO) only. Immediately following the drug or vehicle pretreatment, the cells were challenged with a mixture of xanthine (X) (0.1 mM) and xanthine oxidase (XO) (0.4 U/ml) for 4 h. The control cells were treated with the medium only. After the X/XO challenge, the medium was taken for the measurement of LDH activity, a biochemical index of cellular injury.
The cells were washed twice with 0.5 ml cold phosphate-buffered saline (PBS), An aliquot (200 μl) of 3% sulfonsalicyclic acid was then added, and the mixture was incubate at 4° C. for 10 min. After centrifuging at 300 g for 15 min at 4° C., the supernatant was used for GSH measurement by an enzymatic method of Griffith (1980).

Hsp70 = Hsp70 expression in H9c2 cells (Western blot); type: cell-based, rat; settings: 6.25 μM
Protocol: as §1
Cultured H9c2 cells were treated with (−) Schisandrin B, (+) Schisandrin B or (±) Schisandrin B (dissolved in DMSO) at 6.25 μM (0.2% DMSO final concentration) for increasing periods of time. Control cells were given the vehicle (i.e. DMSO) only.
Immediately following the drug treatment, the cells were washed twice with 0.5 ml cold PBS and treated with 100 μl lysis buffer containing 20 mM Tris HCl, 3 mM EGTA, 1% Triton X-100, 10% glycerol and 2 mM dithiothreitol, pH 7.5, with freshly added protease inhibitors (1 mM phenylmethylsulfonyl fluoride, 0.1 mM benzamide, 5 μg/ml leupeptin, 5 μg aproptinin and 5 μg/ml pepstain A). The mixture was incubated at 4° C. for 15 min with constant shaking. Then the cells were scraped off from the plate, and the extract was transferred to a microcentrifuge tube for centrifugation at 2,400 g for 3 min at 4° C. The resultant supernatant was used for Hsp analysis. Hsp25 and Hsp70 levels was estimated by Western blot analysis using specific antibodies (anti-Hsp25, catalog #SPA-801; anti-Hsp70, catalog #SPA-812) from StressGen (Vancouver, BC, Canada) following SDS-PAGE analysis cell lysates, using a separating gel of 10% acrylamide as described in Ip et. al. [2001]. Hsp25/27 and Hsp70 (human recombinant proteins from StressGen) and actin (bovine muscle from Sigma) were used as markers for reference. […] All immuno-blots were analyzed by densitometry, and the amounts (arbitrary units) of Hsp were normalized with reference to actin levels (arbitrary units) in the sample.

[1] = system: Isolated-Perfused Rat Heart; test: Myocardial ischemia-reperfusion injury (LDH leakage), isolated-perfused heart of old rats; type: in vivo; settings: liposome-encapsulated, 10 mg/kg daily, 35 days
Protocol: Aged male and female rats (˜12 months old) were administered with liposome-encapsulated (−) Schisandrin B in drinking water for 35 days, with the daily dose estimated to be 10 mg/kg.
Male/Female adult Sprague-Dawley rats (˜12 months old) were maintained under a 12-h dark/light cycle at about 22° C. and allowed food and water ad libitum. Animals were randomly divided into groups, with at least 5 animals in each. In the pretreatment groups, rats were treated with liposome-encapsulated (−) Schisandrin B in drinking water for 35 days, with the estimated daily dose of 10 mg/kg. Control animals received empty liposomes-containing drinking water. Twenty-four hours following the last dosing, hearts were isolated from control or drug-pretreated rats and then subjected to Langendorff perfusion as described below.
The heart was excised quickly and immediately immersed in ice-cold and heparinized (50 unit/ml) saline. The aorta was cannulated and then transferred to a warm and moistured chamber of the perfusion apparatus. The heart was retrogradely perfused according to Langendorff method as described (Yim and Ko 1999).
After an initial 30-min of perfusion for equilibration, the isolated heart was subjected to a 40-min period of ‘no-flow’ global ischemia followed by 20 min of reperfusion. Coronary effluent was collected in 1-min fractions at increasing time intervals during the course of equilibration and reperfusion. The fractions were immediately put on ice until assay for lactate dehydrogenase (LDH) activity. The extent of LDH leakage during the reperfusion period, an indirect index of myocardial injury, was estimated by computing the area under the curve of the graph plotting the percent LDH activity (with respect to the mean pre-ischemic value measured during the equilibration period) against the reperfusion time (1-20 min), as described (Yim and Ko 1999). Immediately after the I-R procedure, heart ventricular tissue samples were obtained for biochemical analysis.

[2] = X/XO challenge, 16 h post-dosing

COc1cc2c(c(OC)c1OC)-c1c(cc3c(c1OC)OCO3)CC(C)C(C)C2 (single isomer, unassigned; (-)) [(−) Sch B, (−) Schisandrin B]
stimulatory effect on cellular GSH (H9c2 cells; 48 h post-dosing): no detectable stimulatory effect
time of maximum stimulation of cellular GSH (H9c2 cells; post-dosing): 16 h
GSH Level (H9c2 cells; NON-X/XO, 0 h post-dosing (unpretreated control)): 35.8 ± 1.04 nmol/mg protein
GSH Level (H9c2 cells; NON-X/XO, 4 h post-dosing): 46.8 ± 0.88 nmol/mg protein
GSH Level (H9c2 cells; NON-X/XO, 8 h post-dosing): 54.2 ± 1.42 nmol/mg protein
GSH Level (H9c2 cells; NON-X/XO, 16 h post-dosing): 92.6 ± 1.29 nmol/mg protein
GSH Level, percent increase vs unpretreated control (0 h) (H9c2 cells; NON-X/XO, 16 h post-dosing): (158%)
GSH Level (H9c2 cells; NON-X/XO, 24 h post-dosing): 79.0 ± 1.48 nmol/mg protein
GSH Level (H9c2 cells; NON-X/XO, 48 h post-dosing): 54.7 ± 3.58 nmol/mg protein
GSH Level (H9c2 cells; X/XO challenge, 0 h post-dosing (unpretreated control)): 15.9 ± 0.45 nmol/mg protein
GSH Level (H9c2 cells; X/XO challenge, 4 h post-dosing): 18.3 ± 0.57 nmol/mg protein
GSH Level (H9c2 cells; X/XO challenge, 8 h post-dosing): 20.7 ± 0.61 nmol/mg protein
GSH Level (H9c2 cells; [2]): 25.1 ± 1.50 nmol/mg protein
GSH Level, percent increase vs unpretreated control (0 h) (H9c2 cells; [2]): (57%)
GSH Level (H9c2 cells; X/XO challenge, 24 h post-dosing): 17.8 ± 0.59 nmol/mg protein
GSH Level (H9c2 cells; X/XO challenge, 48 h post-dosing): 16.7 ± 0.63 nmol/mg protein
Hsp 70 Level (Hsp70; 0 h post-dosing (unpretreated control)): 465 ± 14.3 AU
Hsp 70 Level (Hsp70; 8 h post-dosing): 486 ± 16.7 AU
Hsp 70 Level (Hsp70; 16 h post-dosing): 548 ± 6.67 AU
Hsp 70 Level (Hsp70; 24 h post-dosing): 1058 ± 61 AU
Hsp 70 Level, percent increase vs unpretreated control (0 h) (Hsp70; 24 h post-dosing): (128%)
Hsp 70 Level (Hsp70; 48 h post-dosing): 556 ± 32.1 AU
time of maximum stimulation of Hsp70 level (Hsp70; post-dosing): 24 h
LDH Leakage ([1]; I-R, old female): 4534 ± 86.5^b AU
LDH Leakage, percent protection vs unpretreated control ([1]; I-R, old female): (56%)
LDH Leakage ([1]; I-R, old male): 2426 ± 219^a AU
LDH Leakage, percent protection vs unpretreated control ([1]; I-R, old male): (62%)
LDH Leakage ([1]; NON-I-R, old female): 611 ± 49.7 AU
LDH Leakage ([1]; NON-I-R, old male): 570 ± 66.8 AU
